Values of other authors, collected in patent publication US20230372318A1, “METHODS FOR TREATING A SUBJECT HAVING MULTIPLE SYSTEM ATROPHY” (Theravance Biopharma R&D IP, LLC, priority 2022, published 2023).
Where two headings read alike, the source gives them in different places.

Tests used:
[1] = test system: nOH in MSA patients and non-MSA patients; conditions: cited from earlier work
[2] = test system: patients with central autonomic failure; conditions: cited from earlier work
[3] = test system: adult patients with symptomatic nOH; conditions: prescribing information, black box warning; cited from earlier work

## CNCC[C@@H](Oc1ccccc1C)c1ccccc1 [Atomoxetine]
[1]; MSA patients
  Effect against nOH: ineffective
[1]; non-MSA patients
  Effect against nOH: showing improvement
[2]
  Effect on blood pressure: increase blood pressure

## N[C@H](C(=O)O)[C@H](O)c1ccc(O)c(O)c1 [droxidopa, L-threo-3-4-dihydroxyphenylserine]
[3]
  Main side effect: supine hypertension
